Results from the supplement of paper PMC10307832.

How the values were obtained:
Test in all cases: relative viability (nuclei count vs DMSO), 5 days (fraction); higher = more cells survive
UMC-11 = system: UMC-11
Procedure, shortened: (§1)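 Values are medians from duplicate plates. Each reflects relative viability, defined as the nuclei count of treated wells over that of vehicle wells. Lung cancer cell lines in 1536-well plates were pin-tool dosed one day after seeding with one drug alone or with a fixed anchor-drug dose plus five library-drug doses (not always all listed) in √10 steps, then fixed, stained and imaged at 4× after 5 days.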

SK-LU-1 = system: SK-LU-1
Procedure, shortened: as §1

NCI-H358 = system: NCI-H358
Procedure, shortened: as §1

A-427 = system: A-427
Procedure, shortened: as §1

LU99A = system: LU99A
Procedure, shortened: as §1

NCI-H460 = system: NCI-H460
Procedure, shortened: as §1

COR-L 105 = system: COR-L 105
Procedure, shortened: as §1

NCI-H1915 = system: NCI-H1915
Procedure, shortened: as §1

EPLC-272H = system: EPLC-272H
Procedure, shortened: as §1

SW 900 = system: SW 900
Procedure, shortened: as §1

HOP-62 = system: HOP-62
Procedure, shortened: as §1

NCI-H1666 = system: NCI-H1666
Procedure, shortened: as §1

HCC-78 = system: HCC-78
Procedure, shortened: as §1

NCI-H1944 = system: NCI-H1944
Procedure, shortened: as §1

NCI-H2009 = system: NCI-H2009
Procedure, shortened: as §1

HCC-366 = system: HCC-366
Procedure, shortened: as §1

LC-2-ad = system: LC-2-ad
Procedure, shortened: as §1

LXF-289 = system: LXF-289
Procedure, shortened: as §1

NCI-H2085 = system: NCI-H2085
Procedure, shortened: as §1

NCI-H1793 = system: NCI-H1793
Procedure, shortened: as §1

NCI-H2170 = system: NCI-H2170
Procedure, shortened: as §1

NCI-H1792 = system: NCI-H1792
Procedure, shortened: as §1

SMILES: CCN(CC)CCCCNc1ncc2cc(-c3cc(OC)cc(OC)c3)c(NC(=O)NC(C)(C)C)nc2n1 + Nc1ncn([C@H]2C[C@H](O)[C@@H](CO)O2)c(=O)n1 [Decitabine] (partner 2 µM)
- relative viability (UMC-11; first compound 0.01 µM): 0.724
- relative viability (UMC-11; first compound 0.03162 µM): 0.615
- relative viability (UMC-11; first compound 0.1 µM): 0.661
- relative viability (UMC-11; first compound 0.3162 µM): 0.592
- relative viability (UMC-11; first compound 1 µM): 0.592
- relative viability (SK-LU-1; first compound 0.01 µM): 0.628
- relative viability (SK-LU-1; first compound 0.03162 µM): 0.608
- relative viability (SK-LU-1; first compound 0.1 µM): 0.59
- relative viability (SK-LU-1; first compound 0.3162 µM): 0.705
- relative viability (SK-LU-1; first compound 1 µM): 0.448
- relative viability (NCI-H358; first compound 0.01 µM): 0.199
- relative viability (NCI-H358; first compound 0.03162 µM): 0.235
- relative viability (NCI-H358; first compound 0.1 µM): 0.227
- relative viability (NCI-H358; first compound 0.3162 µM): 0.24
- relative viability (NCI-H358; first compound 1 µM): 0.19
- relative viability (A-427; first compound 0.01 µM): 0.626
- relative viability (A-427; first compound 0.03162 µM): 0.506
- relative viability (A-427; first compound 0.1 µM): 0.518
- relative viability (A-427; first compound 0.3162 µM): 0.548
- relative viability (A-427; first compound 1 µM): 0.524
- relative viability (LU99A; first compound 0.01 µM): 1.01
- relative viability (LU99A; first compound 0.03162 µM): 0.82
- relative viability (LU99A; first compound 0.1 µM): 0.861
- relative viability (LU99A; first compound 0.3162 µM): 0.944
- relative viability (LU99A; first compound 1 µM): 0.79
- relative viability (NCI-H460; first compound 0.01 µM): 0.505
- relative viability (NCI-H460; first compound 0.03162 µM): 0.591
- relative viability (NCI-H460; first compound 0.1 µM): 0.645
- relative viability (NCI-H460; first compound 0.3162 µM): 0.584
- relative viability (NCI-H460; first compound 1 µM): 0.412
- relative viability (COR-L 105; first compound 0.01 µM): 0.591
- relative viability (COR-L 105; first compound 0.03162 µM): 0.777
- relative viability (COR-L 105; first compound 0.1 µM): 0.692
- relative viability (COR-L 105; first compound 0.3162 µM): 0.786
- relative viability (COR-L 105; first compound 1 µM): 0.669
- relative viability (NCI-H1915; first compound 0.01 µM): 0.24
- relative viability (NCI-H1915; first compound 0.03162 µM): 0.243
- relative viability (NCI-H1915; first compound 0.1 µM): 0.256
- relative viability (NCI-H1915; first compound 0.3162 µM): 0.242
- relative viability (NCI-H1915; first compound 1 µM): 0.266
- relative viability (EPLC-272H; first compound 0.01 µM): 0.384
- relative viability (EPLC-272H; first compound 0.1 µM): 0.359
- relative viability (EPLC-272H; first compound 0.3162 µM): 0.378
- relative viability (EPLC-272H; first compound 1 µM): 0.331
- relative viability (SW 900; first compound 0.01 µM): 0.509
- relative viability (SW 900; first compound 0.03162 µM): 0.401
- relative viability (SW 900; first compound 0.1 µM): 0.459
- relative viability (SW 900; first compound 0.3162 µM): 0.416
- relative viability (SW 900; first compound 1 µM): 0.437
- relative viability (HOP-62; first compound 0.01 µM): 0.243
- relative viability (HOP-62; first compound 0.03162 µM): 0.207
- relative viability (HOP-62; first compound 0.1 µM): 0.208
- relative viability (HOP-62; first compound 0.3162 µM): 0.207
- relative viability (HOP-62; first compound 1 µM): 0.268
- relative viability (NCI-H1666; first compound 0.01 µM): 0.695
- relative viability (NCI-H1666; first compound 0.03162 µM): 0.791
- relative viability (NCI-H1666; first compound 0.1 µM): 0.761
- relative viability (NCI-H1666; first compound 0.3162 µM): 0.759
- relative viability (NCI-H1666; first compound 1 µM): 0.79
- relative viability (HCC-78; first compound 0.01 µM): 0.697
- relative viability (HCC-78; first compound 0.03162 µM): 0.769
- relative viability (HCC-78; first compound 0.1 µM): 0.683
- relative viability (HCC-78; first compound 0.3162 µM): 0.666
- relative viability (HCC-78; first compound 1 µM): 0.636
- relative viability (NCI-H1944; first compound 0.01 µM): 0.489
- relative viability (NCI-H1944; first compound 0.03162 µM): 0.435
- relative viability (NCI-H1944; first compound 0.1 µM): 0.427
- relative viability (NCI-H1944; first compound 0.3162 µM): 0.489
- relative viability (NCI-H1944; first compound 1 µM): 0.477
- relative viability (NCI-H2009; first compound 0.01 µM): 0.401
- relative viability (NCI-H2009; first compound 0.03162 µM): 0.39
- relative viability (NCI-H2009; first compound 0.1 µM): 0.35
- relative viability (NCI-H2009; first compound 0.3162 µM): 0.387
- relative viability (NCI-H2009; first compound 1 µM): 0.365
- relative viability (HCC-366; first compound 0.01 µM): 0.316
- relative viability (HCC-366; first compound 0.03162 µM): 0.378
- relative viability (HCC-366; first compound 0.1 µM): 0.368
- relative viability (HCC-366; first compound 0.3162 µM): 0.41
- relative viability (HCC-366; first compound 1 µM): 0.319
- relative viability (LC-2-ad; first compound 0.01 µM): 0.827
- relative viability (LC-2-ad; first compound 0.03162 µM): 0.81
- relative viability (LC-2-ad; first compound 0.1 µM): 0.823
- relative viability (LC-2-ad; first compound 0.3162 µM): 0.852
- relative viability (LC-2-ad; first compound 1 µM): 0.775
- relative viability (LXF-289; first compound 0.01 µM): 0.336
- relative viability (LXF-289; first compound 0.03162 µM): 0.364
- relative viability (LXF-289; first compound 0.1 µM): 0.363
- relative viability (LXF-289; first compound 0.3162 µM): 0.424
- relative viability (LXF-289; first compound 1 µM): 0.377
- relative viability (NCI-H2085; first compound 0.01 µM): 0.559
- relative viability (NCI-H2085; first compound 0.03162 µM): 0.603
- relative viability (NCI-H2085; first compound 0.1 µM): 0.564
- relative viability (NCI-H2085; first compound 0.3162 µM): 0.533
- relative viability (NCI-H2085; first compound 1 µM): 0.549
- relative viability (NCI-H1793; first compound 0.01 µM): 0.496
- relative viability (NCI-H1793; first compound 0.03162 µM): 0.464
- relative viability (NCI-H1793; first compound 0.1 µM): 0.56
- relative viability (NCI-H1793; first compound 0.3162 µM): 0.472
- relative viability (NCI-H1793; first compound 1 µM): 0.352
- relative viability (NCI-H2170; first compound 0.01 µM): 0.474
- relative viability (NCI-H2170; first compound 0.03162 µM): 0.427
- relative viability (NCI-H2170; first compound 0.1 µM): 0.436
- relative viability (NCI-H2170; first compound 0.3162 µM): 0.47
- relative viability (NCI-H2170; first compound 1 µM): 0.497
- relative viability (NCI-H1792; first compound 0.01 µM): 0.522
- relative viability (NCI-H1792; first compound 0.03162 µM): 0.552
- relative viability (NCI-H1792; first compound 0.1 µM): 0.536
- relative viability (NCI-H1792; first compound 0.3162 µM): 0.489
- relative viability (NCI-H1792; first compound 1 µM): 0.479
